The record followed here is patent publication US20080207527A1, “Bicyclic Compounds Which Inhibit Beta-Secretase Activity and Methods of Use Thereof” (CoMentis, Inc., priority 2004, published 2008).

Structures are written as SMILES. Where only a bound is given, the exact number is not on record here.

One experiment addresses memapsin 2 (Homo sapiens, UniProt P56817). In words: Inhibition of memapsin 2 beta-secretase activity toward fluorogenic substrate FS-2. It is filed as biochemical. To be noted: pH 4, 37° C., 20 minutes pre-incubation, read-out: M2 Ki. The procedure: Potency of compounds were determined by measurement of their inhibition of memapsin 2 activity toward a fluorescent substrate. […] Briefly, assays were performed at pH 4, 37° C., by pre-incubation of memapsin 2 enzyme with compound for 20 minutes. Activity measure was initiated by addition of a fluorogenic substrate FS-2 (Bachem Americas, Torrance, Calif.). Fluorescent signal increase over time was measured as a rate of hydrolysis of the peptide substrate.

For a further experiment, the target named is Cathepsin D (Homo sapiens, UniProt P07339). In words: Inhibition of cathepsin D activity (substrate peptide hydrolysis, MALDI-TOF). It is filed as biochemical. To be noted: pH 4.1, 37 degrees C., read-out: Cath D Ki.
Chain of Cathepsin D (P07339 65-412, species assumed): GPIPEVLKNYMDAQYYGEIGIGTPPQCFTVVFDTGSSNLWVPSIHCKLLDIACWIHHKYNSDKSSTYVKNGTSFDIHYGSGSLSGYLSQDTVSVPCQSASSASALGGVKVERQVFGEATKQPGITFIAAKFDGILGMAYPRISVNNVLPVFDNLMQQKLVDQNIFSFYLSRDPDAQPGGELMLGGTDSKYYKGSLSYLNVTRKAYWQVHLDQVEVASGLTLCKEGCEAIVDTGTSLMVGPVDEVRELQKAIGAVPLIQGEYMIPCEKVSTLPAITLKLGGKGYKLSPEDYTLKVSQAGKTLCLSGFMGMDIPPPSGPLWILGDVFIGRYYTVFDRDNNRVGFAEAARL
A further experiment concerns Aβ production. In words: Cellular Aβ IC50 determination (Aβ40 sandwich ELISA). To be noted: Cricetulus griseus, Chinese hamster ovary cells over-expressing human APP695 with London and Swedish mutations, 24 h. The class given is cell-based. As to the method: The potency of compounds against memapsin 2 activity was determined in a cellular assay of Aβ production. […] Chinese hamster ovary cells that over-express human APP695 with the London and Swedish mutations were seeded in multi-well plates at 10% confluency. Compounds were dissolved in DMSO to concentrations near 1 mM, and diluted into culture media to a final concentration near 4 μM (final 0.4% DMSO). Compounds were diluted serially and applied to cells in multi-well plates 48 h after seeding. Incubation was continued in 5% CO2 at 37 degrees C. for 24 h. Aliquots were removed and assayed for Aβ40 content using a sandwich ELISA (BioSource International). Amount of Aβ40 over the range of concentration of compounds, relative to control incubations, were fit to a 4-parameter IC50 model.

Chain of memapsin 2 (P56817 46-501): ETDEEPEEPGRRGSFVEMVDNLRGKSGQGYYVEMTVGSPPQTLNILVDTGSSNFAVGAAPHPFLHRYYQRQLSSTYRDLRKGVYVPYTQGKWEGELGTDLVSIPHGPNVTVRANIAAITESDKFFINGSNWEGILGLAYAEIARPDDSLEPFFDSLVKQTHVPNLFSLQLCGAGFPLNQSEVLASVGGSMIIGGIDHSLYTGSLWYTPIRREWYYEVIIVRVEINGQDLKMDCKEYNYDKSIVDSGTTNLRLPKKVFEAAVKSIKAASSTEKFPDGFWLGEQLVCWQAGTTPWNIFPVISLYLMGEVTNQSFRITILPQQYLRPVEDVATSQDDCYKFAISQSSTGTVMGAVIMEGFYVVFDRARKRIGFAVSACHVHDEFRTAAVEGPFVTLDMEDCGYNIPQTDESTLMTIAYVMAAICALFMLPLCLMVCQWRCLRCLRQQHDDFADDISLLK

Consider `Cc1nc(C(C)NC(=O)c2cc(C(=O)NC(CC(C)C)C(O)CC(C)C(=O)NC(C(=O)NC(C)C)C(C)C)cc(N(C)S(C)(=O)=O)c2)c(C)o1` (stereo not shown) [N1-(1-(2,5-dimethyloxazol-4-yl)ethyl)-N3-(5-hydroxy-8-(1-(isopropylamino)-3-methyl-1-oxobutan-2-ylamino)-2,7-dimethyl-8-oxooctan-4-yl)-5-(N-methylmethylsulfonamido)isophthalamide], for which the results for the Ki at memapsin 2 and at Cathepsin D were under 405 nM and 405 to 2000 nM, respectively. The compound also returned an IC50 in the experiment on Aβ production of 10000 to 20000 nM.

`CNS(=O)(=O)c1cc(C(=O)NC(C)c2ccccc2)cc(C(=O)NC(CC(C)C)C(O)CC(C)C(=O)NC(C(=O)NCC(C)C)C(C)C)c1` (stereo not shown) [N1-(5-hydroxy-8-(1-(isobutylamino)-3-methyl-1-oxobutan-2-ylamino)-2,7-dimethyl-8-oxooctan-4-yl)-5-(N-methylsulfamoyl)-N3-(1-phenylethyl)isophthalamide]: the Ki on memapsin 2 was under 405 nM. Further, in the experiment on Aβ production, the IC50 was in the range of 5000 to 10000 nM.

For `Cc1cc(C(=O)NC(CC(C)C)C(O)CC(C)C(=O)NC(C(=O)NCC(C)C)C(C)C)cc(C(=O)N(C)Cc2ccccn2)c1` (stereo not shown) [N1-(5-hydroxy-8-(1-(isobutylamino)-3-methyl-1-oxobutan-2-ylamino)-2,7-dimethyl-8-oxooctan-4-yl)-N3,5-dimethyl-N3-(pyridin-2-ylmethyl)isophthalamide], on memapsin 2, the Ki was under 405 nM. In the experiment on Aβ production, this compound came in with an IC50 of over 20000 nM.

For `Cc1cc(C(=O)NC(CC(C)C)C(O)CC(C)C(=O)NC(C(=O)NCC(C)C)C(C)C)cc(C(=O)N(C)Cc2cccnc2)c1` (stereo not shown) [N1-(5-hydroxy-8-(1-(isobutylamino)-3-methyl-1-oxobutan-2-ylamino)-2,7-dimethyl-8-oxooctan-4-yl)-N3,5-dimethyl-N3-(pyridin-3-ylmethyl)isophthalamide], the Ki on memapsin 2 is under 405 nM. The compound also came in with an IC50 in the experiment with Aβ production of 10000 to 20000 nM.

`CC(C)CNC(=O)C(NC(=O)C(C)CC(O)C(CC(C)C)NC(=O)c1cccc(C(=O)N(C)Cc2cccc(O)c2)c1)C(C)C` (stereo not shown) [N1-(5-hydroxy-8-(1-(isobutylamino)-3-methyl-1-oxobutan-2-ylamino)-2,7-dimethyl-8-oxooctan-4-yl)-N3-(3-hydroxybenzyl)-N3-methylisophthalamide]: the Ki on memapsin 2 lay within 405 to 2000 nM. The compound further returned an IC50 in the experiment with Aβ production of over 20000 nM.

As to `COc1cccc(CN(C)C(=O)c2cccc(C(=O)NC(CC(C)C)C(O)CC(C)C(=O)NC(C(=O)NCC(C)C)C(C)C)c2)c1` (stereo not shown) [N1-(5-hydroxy-8-(1-(isobutylamino)-3-methyl-1-oxobutan-2-ylamino)-2,7-dimethyl-8-oxooctan-4-yl)-N3-(3-methoxybenzyl)-N3-methylisophthalamide], the Ki at memapsin 2 lay in the range of 405 to 2000 nM. The IC50 with Aβ production was over 20000 nM.

Turning to `CC(C)CNC(=O)C(NC(=O)C(C)CC(O)C(CC(C)C)NC(=O)c1cc(C(=O)N(C)Cc2ccncc2)cc(N(C)S(C)(=O)=O)c1)C(C)C` (stereo not shown) [N1-(5-hydroxy-8-(1-(isobutylamino)-3-methyl-1-oxobutan-2-ylamino)-2,7-dimethyl-8-oxooctan-4-yl)-N3-methyl-5-(N-methylmethylsulfonamido)-N3-(pyridin-4-ylmethyl)isophthalamide], at memapsin 2, the Ki was under 405 nM. For the same compound, the IC50 in the experiment on Aβ production is over 20000 nM.

For the compound `Cc1nc(CN(C)C(=O)c2cccc(C(=O)NC(CC(C)C)C(O)CC(C)C(=O)NC(C(=O)NCC(C)C)C(C)C)c2)co1` (stereo not shown) [N1-(5-hydroxy-8-(1-(isobutylamino)-3-methyl-1-oxobutan-2-ylamino)-2,7-dimethyl-8-oxooctan-4-yl)-N3-methyl-N3-((2-methyloxazol-4-yl)methyl)isophthalamide], the Ki at memapsin 2 is under 405 nM. Besides, the IC50 with Aβ production was over 20000 nM.

For the compound `Cc1ccc(CN(C)C(=O)c2cccc(C(=O)NC(CC(C)C)C(O)CC(C)C(=O)NC(C(=O)NCC(C)C)C(C)C)c2)o1` (stereo not shown) [N1-(5-hydroxy-8-(1-(isobutylamino)-3-methyl-1-oxobutan-2-ylamino)-2,7-dimethyl-8-oxooctan-4-yl)-N3-methyl-N3-((5-methylfuran-2-yl)methyl)isophthalamide], the Ki at memapsin 2 was under 405 nM. For the same compound, in the experiment on Aβ production, the IC50 was over 20000 nM.

For `CCCNC(=O)c1cc(C(=O)NC(CC(C)C)C(O)CC(C)C(=O)NC(C(=O)NC(C)C)C(C)C)cc(N(C)S(C)(=O)=O)c1` (stereo not shown) [N1-(5-hydroxy-8-(1-(isopropylamino)-3-methyl-1-oxobutan-2-ylamino)-2,7-dimethyl-8-oxooctan-4-yl)-5-(N-methylmethylsulfonamido)-N3-propylisophthalamide], the Ki on memapsin 2 is under 405 nM; at Cathepsin D, 405 to 2000 nM. The IC50 with Aβ production is under 5000 nM.

`CC(C)CC(NC(=O)c1cc(C(=O)NC(C)c2ccccc2)cc(N(C)S(C)(=O)=O)c1)C(O)CC(N)C(=O)NC(C(=O)NC(C)C)C(C)C` (stereo not shown) [N1-(7-amino-5-hydroxy-8-(1-(isopropylamino)-3-methyl-1-oxobutan-2-ylamino)-2-methyl-8-oxooctan-4-yl)-5-(N-methylmethylsulfonamido)-N3-(1-phenylethyl)isophthalamide]: the Ki at memapsin 2 was under 405 nM. The compound further had an IC50 in the experiment with Aβ production of over 20000 nM.

Regarding `CC(C)CC(NC(=O)c1cc(C(=O)NC(C)c2ccccc2)cc(N(C)S(C)(=O)=O)c1)C(O)CC(N=[N+]=[N-])C(=O)NC(C(=O)NC(C)C)C(C)C` (stereo not shown) [N1-(7-azido-5-hydroxy-8-(1-(isopropylamino)-3-methyl-1-oxobutan-2-ylamino)-2-methyl-8-oxooctan-4-yl)-5-(N-methylmethylsulfonamido)-N3-(1-phenylethyl)isophthalamide], the Ki on memapsin 2 was under 405 nM. In the experiment with Aβ production, this compound yielded an IC50 of under 5000 nM.

On to `Cc1nc(CNC(=O)c2cc(C(=O)NC(CC(C)C)C(O)CC(C)C(=O)NC(C(=O)NC(C)C)C(C)C)cc(N(C)S(C)(=O)=O)c2)c(C)o1` (stereo not shown) [N1-((2,5-dimethyloxazol-4-yl)methyl)-N3-(5-hydroxy-8-(1-(isopropylamino)-3-methyl-1-oxobutan-2-ylamino)-2,7-dimethyl-8-oxooctan-4-yl)-5-(N-methylmethylsulfonamido)isophthalamide], for which the Ki on memapsin 2 and on Cathepsin D was under 405 nM throughout. The compound further came in with an IC50 in the experiment on Aβ production of under 5000 nM.

As for `CC(C)CNC(=O)C(NC(=O)C(C)CC(O)C(CC(C)C)NC(=O)c1cccc(C(=O)N(C)Cc2ccccc2)c1)C(C)C` (stereo not shown) [N1-benzyl-N3-(5-hydroxy-8-(1-(isobutylamino)-3-methyl-1-oxobutan-2-ylamino)-2,7-dimethyl-8-oxooctan-4-yl)-N1-methylisophthalamide], on memapsin 2, the inhibitory constant (Ki) was under 405 nM. The IC50 with Aβ production was over 20000 nM.

Consider `CC(C)CNC(=O)C(NC(=O)C(C)CC(O)C(CC(C)C)NC(=O)c1cc(C(=O)NC2CCCC2)cc(N(C)S(C)(=O)=O)c1)C(C)C` (stereo not shown) [N1-cyclopentyl-N3-(5-hydroxy-8-(1-(isobutylamino)-3-methyl-1-oxobutan-2-ylamino)-2,7-dimethyl-8-oxooctan-4-yl)-5-(N-methylmethylsulfonamido)isophthalamide], for which the Ki at memapsin 2 was under 405 nM. Besides, the IC50 in the experiment with Aβ production is under 5000 nM.

For `CCN(Cc1nc(C)cs1)C(=O)c1cccc(C(=O)NC(CC(C)C)C(O)CC(C)C(=O)NC(C(=O)NCC(C)C)C(C)C)c1` (stereo not shown) [N1-ethyl-N3-(5-hydroxy-8-(1-(isobutylamino)-3-methyl-1-oxobutan-2-ylamino)-2,7-dimethyl-8-oxooctan-4-yl)-N1-((4-methylthiazol-2-yl)methyl)isophthalamide], the Ki on memapsin 2 was under 405 nM. Moreover, the IC50 in the experiment with Aβ production was under 5000 nM.

Regarding `Cc1csc(CN(C)C(=O)c2cccc(C(=O)NC(CC(C)C)C(O)CC(C)C(=O)NC(C(=O)NCC(C)C)C(C)C)n2)n1` (stereo not shown) [N2-(5-hydroxy-8-(1-(isobutylamino)-3-methyl-1-oxobutan-2-ylamino)-2,7-dimethyl-8-oxooctan-4-yl)-N6-methyl-N6-((4-methylthiazol-2-yl)methyl)pyridine-2,6-dicarboxamide], the Ki at memapsin 2 was under 405 nM. In the experiment with Aβ production, this compound had an IC50 of over 20000 nM.

On to `Cc1csc(CN(C)C(=O)c2cncc(C(=O)NC(CC(C)C)C(O)CC(C)C(=O)NC(C(=O)NCC(C)C)C(C)C)c2)n1` (stereo not shown) [N3-(5-hydroxy-8-(1-(isobutylamino)-3-methyl-1-oxobutan-2-ylamino)-2,7-dimethyl-8-oxooctan-4-yl)-N5-methyl-N5-((4-methylthiazol-2-yl)methyl)pyridine-3,5-dicarboxamide], for which the Ki at memapsin 2 was under 405 nM. In the experiment with Aβ production, this compound showed an IC50 of 5000 to 10000 nM.

Regarding `CC(C)CNC(=O)C(NC(=O)C(C)CC(O)C(CC(C)C)NC(=O)c1cncc(C(=O)N(C)Cc2cccnc2)c1)C(C)C` (stereo not shown) [N3-(5-hydroxy-8-(1-(isobutylamino)-3-methyl-1-oxobutan-2-ylamino)-2,7-dimethyl-8-oxooctan-4-yl)-N5-methyl-N5-(pyridin-3-ylmethyl)pyridine-3,5-dicarboxamide], the Ki at memapsin 2 was 405 to 2000 nM. In the experiment on Aβ production, this compound had an IC50 of over 20000 nM.

For `CC(C)CNC(=O)C(NC(=O)C(C)CC(O)C(CC(C)C)NC(=O)c1cc(C(=O)NC(C)c2ccccc2)cc(N(C)C(=O)OC2CCOC2)c1)C(C)C` (stereo not shown) [tetrahydrofuran-3-yl 3-(5-hydroxy-8-(1-(isobutylamino)-3-methyl-1-oxobutan-2-ylamino)-2,7-dimethyl-8-oxooctan-4-ylcarbamoyl)-5-(1-phenylethylcarbamoyl)phenyl(methyl)carbamate], the inhibition constant (Ki) at memapsin 2 fell in the range of 405 to 2000 nM. Moreover, the IC50 in the experiment on Aβ production was over 20000 nM.
